Holding throughout (test): MIC, agar dilution (MHA), compound alone
Holding throughout (format): cell-based
A general note: Agar dilution tests growth on a series of plates holding different concentrations.

Experiment [1] concerns E. coli M 50. The settings on record: Escherichia coli. On the procedure: (§1) The biological activity of representative compounds according to the invention against various bacterial strains was investigated. The Minimum Inhibitory Concentration (MIC) determination for the combinations was carried out in Muller Hinton Agar (MHA) (BD, USA) according to Clinical and Laboratory Standards Institute (CLSI) recommendations, (Clinical and Laboratory Standards Institute (CLSI), Performance Standards for Antimicrobial Susceptibility Testing, 20th Informational Supplement, M 100-S20, Volume 30, No. 1, 2010). In short, the test strains were adjusted to deliver about 10^4 CFU per spot with a multipoint inoculator (Applied Quality Services, UK). The plates were poured with MHA containing doubling concentration range of representative compounds according to present invention. The plates were inoculated and were incubated at 35° C. for 18 hours. […] The Table 5 depicts the antibacterial activity profile of compounds according to present invention against various multidrug resistant bacterial strains.

Experiment [2] deals with K. pneumoniae H521. The settings on record: Klebsiella pneumoniae. The procedure: as §1
The subject of experiment [3] is E. coli 7 MP. The settings on record: Escherichia coli. On the procedure:
as §1

Experiment [4] relates to E. coli NCTC 13352. The settings on record: Escherichia coli. The procedure:
as §1

In experiment [5] the test system is K. pneumoniae ATCC 700603. As to conditions: Klebsiella pneumoniae. On the procedure:
as §1

Experiment [6] has as its system E. coli NCTC 13353. As to conditions: Escherichia coli. On the procedure:
as §1

Experiment [7] concerns K. pneumoniae H525. As to conditions: Klebsiella pneumoniae. The procedure: as §1
Where [8] appears, read: M50, E. coli M 50, compound alone, MHA, 35° C., 18 hours, read-out: MIC.
Setting [9] is: K. pneumoniae H521, compound alone, MHA, 35° C., 18 hours, read-out: MIC.
Where [10] appears, read: E. coli 7 MP, compound alone, MHA, 35° C., 18 hours, read-out: MIC.
Where [11] appears, read: NCTC13352, E. coli NCTC 13352, compound alone, MHA, 35° C., 18 hours, read-out: MIC.
Setting [12] is: ATCC700603, K. pneumoniae ATCC 700603, compound alone, MHA, 35° C., 18 hours, read-out: MIC.
Where [13] appears, read: NCTC13353, E. coli NCTC 13353, compound alone, MHA, 35° C., 18 hours, read-out: MIC.
The mark [14] stands for this setting: K. pneumoniae H525, compound alone, MHA, 35° C., 18 hours, read-out: MIC.

Like-named read-outs stand apart in the source and are kept apart here.

For orientation: MIC means the least concentration at which growth counts as inhibited.

As for `C[C@@H](C(=O)NNC(=O)[C@@H]1CC[C@@H]2CN1C(=O)N2OS(=O)(=O)[O-])n1ccnc1.[Na+]` [Example 20], the minimal inhibitory concentration (MIC) was 0.5 µg/mL in experiment [1] (setting [8]); 2 µg/mL in experiment [2] (setting [9]); 1 µg/mL in experiment [3] (setting [10]); 0.5 µg/mL in experiment [4] (setting [11]); above 32 µg/mL in experiment [5] (setting [12]); 0.5 µg/mL in experiment [6] (setting [13]). In experiment [7] (setting [14]), the MIC worked out at 2 µg/mL.
On to `NCCCCc1nnnn1CC(=O)NNC(=O)[C@@H]1CC[C@@H]2CN1C(=O)N2OS(=O)(=O)O` [Example 33], for which the MIC in experiment [1] (setting [8]) was 0.5 µg/mL; in experiment [2] (setting [9]) it was 4 µg/mL; in experiment [3] (setting [10]) it was 1 µg/mL; in experiment [4] (setting [11]), 1 µg/mL; in experiment [5] (setting [12]), above 32 µg/mL; in experiment [6] (setting [13]) it was 0.5 µg/mL. The MIC in experiment [7] (setting [14]) amounted to 0.5 µg/mL.
As for `NCCc1nnn(CC(=O)NNC(=O)[C@@H]2CC[C@@H]3CN2C(=O)N3OS(=O)(=O)O)n1` [Example 28], the MIC was 0.25 µg/mL in experiment [1] (setting [8]); 0.5 µg/mL in experiment [2] (setting [9]); 1 µg/mL in experiment [3] (setting [10]); 0.5 µg/mL in experiment [4] (setting [11]); above 32 µg/mL in experiment [5] (setting [12]); 0.25 µg/mL in experiment [6] (setting [13]). Besides, the MIC in experiment [7] (setting [14]) turned out to be 0.5 µg/mL.
Regarding `O=C(NOCCn1nnnc1CCO)[C@@H]1CC[C@@H]2CN1C(=O)N2OS(=O)(=O)[O-].[Na+]` [Example 56], the MIC was 4 µg/mL in experiment [1] (setting [8]); 8 µg/mL in experiment [2] (setting [9]); above 32 µg/mL in experiment [3] (setting [10]); 8 µg/mL in experiment [4] (setting [11]); above 32 µg/mL in experiment [5] (setting [12]); 4 µg/mL in experiment [6] (setting [13]). Further, in experiment [7] (setting [14]), the MIC was determined as 16 µg/mL.
With `NCc1nnn(CC(=O)NNC(=O)[C@@H]2CC[C@@H]3CN2C(=O)N3OS(=O)(=O)O)n1` [Example 26], the MIC in experiment [1] (setting [8]) is 0.5 µg/mL; in experiment [2] (setting [9]) it was 1 µg/mL; in experiment [3] (setting [10]) it was 1 µg/mL; in experiment [4] (setting [11]) it was 0.5 µg/mL; in experiment [5] (setting [12]), above 32 µg/mL; in experiment [6] (setting [13]), 0.5 µg/mL. For the same compound, the MIC in experiment [7] (setting [14]) turned out to be 1 µg/mL.
On to `Cc1nnnn1CC(=O)NNC(=O)[C@@H]1CC[C@@H]2CN1C(=O)N2OS(=O)(=O)[O-].[Na+]` [Example 9], for which the MIC was 0.25 µg/mL in experiment [1] (setting [8]); 4 µg/mL in experiment [2] (setting [9]); 1 µg/mL in experiment [3] (setting [10]); 0.5 µg/mL in experiment [4] (setting [11]); above 32 µg/mL in experiment [5] (setting [12]); 0.25 µg/mL in experiment [6] (setting [13]). In experiment [7] (setting [14]), the MIC was 1 µg/mL.
Turning to `O=C(Cn1ccnn1)NNC(=O)[C@@H]1CC[C@@H]2CN1C(=O)N2OS(=O)(=O)[O-].[Na+]` [Example 7], the MIC was 0.5 µg/mL in experiment [1] (setting [8]); 1 µg/mL in experiment [2] (setting [9]); 1 µg/mL in experiment [3] (setting [10]); 0.5 µg/mL in experiment [4] (setting [11]); above 32 µg/mL in experiment [5] (setting [12]); 0.5 µg/mL in experiment [6] (setting [13]). Further, in experiment [7] (setting [14]), the MIC came out at 1 µg/mL.
Regarding `Nc1ncn(CC(=O)NNC(=O)[C@@H]2CC[C@@H]3CN2C(=O)N3OS(=O)(=O)O)n1` [Example 27], the MIC was 1 µg/mL in experiment [1] (setting [8]); 2 µg/mL in experiment [2] (setting [9]); 2 µg/mL in experiment [3] (setting [10]); 1 µg/mL in experiment [4] (setting [11]); above 32 µg/mL in experiment [5] (setting [12]); 1 µg/mL in experiment [6] (setting [13]). Moreover, the MIC in experiment [7] (setting [14]) turned out to be 2 µg/mL.
Regarding `Nc1ccn(CC(=O)NNC(=O)[C@@H]2CC[C@@H]3CN2C(=O)N3OS(=O)(=O)[O-])c(=O)n1.[Na+]` [Example 37], the MIC in experiment [1] (M50, 18 h) was 1 µg/mL; in experiment [2] (H521, 18 h), 4 µg/mL; in experiment [3] (7MP, 18 h), 4 µg/mL; in experiment [4] (NCTC13352, 18 h) it was 2 µg/mL; in experiment [5] (ATCC700603, 18 h), above 32 µg/mL; in experiment [6] (NCTC13353, 18 h), 1 µg/mL. Further, in experiment [7] (H525, 18 h), the minimum inhibitory concentration (MIC) was 4 µg/mL.
Consider `NCCc1nnn(CCONC(=O)[C@@H]2CC[C@@H]3CN2C(=O)N3OS(=O)(=O)O)n1` [Example 46], for which the MIC in experiment [1] (setting [8]) was 4 µg/mL; in experiment [2] (setting [9]), 4 µg/mL; in experiment [3] (setting [10]), 32 µg/mL; in experiment [4] (setting [11]), 8 µg/mL; in experiment [5] (setting [12]), above 32 µg/mL; in experiment [6] (setting [13]) it was 4 µg/mL. Moreover, the MIC in experiment [7] (setting [14]) is 4 µg/mL.
